According to ChEMBL document CHEMBL1159280, “Idiospermuline, a trimeric pyrrolidinoindoline alkaloid from the seed of Idiospermum australiense” (1995):
Calls of active or inactive are those of the source. No cut-off for these calls is given here.

Tests used:
Format in all cases: functional
Rattus norvegicus [1] = species on record: Rattus norvegicus; test: Effect on neurochemical transmission in Sprague-Dawley rat cortical wedge assessed as hyperpolarization activity at 50 to 500 uM
[2] = Reduction of acetylcholine-induced depolarizing response in Sprague-Dawley rat cortical wedge at 50 uM relative to control; design: scale not given: the % may be the effect or the level left
[3] = Reduction of acetylcholine-induced depolarizing response in Sprague-Dawley rat cortical wedge at 10 uM relative to control; design: scale not given: the % may be the effect or the level left
Rattus norvegicus [4] = species on record: Rattus norvegicus; test: Effect on neurochemical transmission in Sprague-Dawley rat cortical wedge assessed as hyperpolarization activity at 10 to 100 uM

CN1CC[C@]23c4ccccc4N[C@H]1[C@]21CCN(C)[C@H]3Nc2ccccc21 [CALYCANTHINE]
Activity (Rattus norvegicus [1]): Active | Activity [2]: 20.4%

CN1CC[C@]2([C@]34CCN(C)[C@H]3Nc3ccccc34)c3ccccc3N[C@H]12 [CHIMONANTHINE]
Activity [3]: 58.3% | Activity (Rattus norvegicus [4]): Active

CN1CC[C@@]2(c3cccc4c3N[C@H]3N(C)CC[C@@]43[C@@]34CCN(C)[C@@H]3N(C)c3ccccc34)c3ccccc3N(C)[C@@H]12 [IDIOSPERMULINE]
Activity [3]: 61.2% | Activity (Rattus norvegicus [4]): Active
